Source: patent publication US12728119B2, “Pharmaceutical composition for preventing or treating cancer comprising 3-ketoacyl CoA thiolase inhibitor and carnitine acylcarnitine carrier inhibitor” (NATIONAL CANCER CENTER, priority 2020, dated 2026)
Where “and” joins values, the source holds several entries; their conditions need not be identical. Identical values can stand only once.

Assays:
Assay type in all cases: cell-based
[1] = test system: MIA PaCa2 pancreatic cancer cells; test: SRB analysis 2; conditions: MIA PaCa-2, 48 hours
Description: (§1) The SRB assay was performed as follows: each cell line (100 μl) was seeded into 96-well microtiter plates at densities ranging from 5,000 to 20,000 cells/well depending on the doubling time of each cell line. After cell seeding, microtiter plates were incubated for 24 h before addition of experimental drug. Drugs were prepared at the indicated concentrations and 100 μl was added to each well; The plates were then incubated in a CO2 incubator. Then, cold TCA was added to terminate the assay. Cells were fixed in situ by gentle addition of 50 μl of cold 50% (w/v) TCA (final concentration: 10% TCA) and incubated at 4° C. for 60 min. The supernatant was discarded and the plate was washed 5 times with tap water and then air dried. A solution (100 μl) of 0.4% (w/v) SRB (Sulforhodamine B) in 1% acetic acid was added to each well, and the plate was left at room temperature for 10 minutes. After staining, the plates were air dried after washing 5 times with 1% acetic acid to remove unbound dye. The bound dye was then solubilized with 10 mM trizma base and the absorbance was recorded at 515 nm using an automated plate reader.

[2] = test system: SU.86.86 pancreatic cancer cells; test: SRB analysis 2; conditions: 48 hours
Description: as §1

[3] = test system: SNU-324 pancreatic cancer cells; test: SRB analysis 2; conditions: SNU324, 48 hours
Description: as §1

[4] = test system: BxPC-3 pancreatic cancer cells; test: SRB analysis 2; conditions: 48 hours
Description: as §1

[5] = test system: SNU-213 pancreatic cancer cells; test: SRB analysis 2; conditions: SNU213, 48 hours
Description: as §1

[6] = test system: AsPC-1 pancreatic cancer cells; test: SRB analysis 2; conditions: 48 hours
Description: as §1

[7] = test system: T87G glioblastoma (GBM) cell line; test: SRB analysis 3; conditions: 48 hours
How it was run: (§2)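 Glioblastoma cells were seeded at 5,000–40,000/well and exposed for 48 h at 37 °C to a triple combination of CAC inhibitor, trimetazidine and another anticancer drug. Growth was read by TCA fixation, 0.4% SRB staining and absorbance at 515 nm after solubilisation in 10 mM Trizma, n=3.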

[8] = test system: U87MG glioblastoma (GBM) cell line; test: SRB analysis 3; conditions: 48 hours
How it was run: as §2

[9] = test system: MKN45 gastric cancer cell line; test: SRB analysis 3; conditions: MKN45, 48 hours
How it was run: (§3)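 Read-out is SRB absorbance at 515 nm after TCA fixation, with effects given as GI50, TGI or LC50. Cells were exposed for 48 h at 37° C to omeprazole, trimetazidine and a further anticancer drug, added 24 h post-seeding.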

[10] = test system: H1975 non-small cell lung cancer (NSCLC) cell line; test: SRB analysis 3; conditions: 48 hours
How it was run: as §3

A375 melanoma cell line = test: SRB analysis 3; conditions: 48 hours
How it was run: as §3

[11] = test system: MIA PaCa-2 pancreatic cancer (PDAC) cell line; test: SRB analysis 3; conditions: 48 hours
How it was run: as §3

[12] = test system: MDA-MB-231 breast cancer cell line; test: SRB analysis 3; conditions: 48 hours
How it was run: as §3

[13] = test system: AsPC-1 pancreatic cancer (PDAC) cell line; test: SRB analysis 3; conditions: 48 hours
How it was run: as §3

[14] = test system: HCT-116 colon cancer cell line; test: SRB analysis 3; conditions: 48 hours
How it was run: as §3

[15] = test system: SK-hep-1 liver cancer cell line; test: SRB analysis 3; conditions: 48 hours
How it was run: as §3

[16] = test system: SK-OV-3 ovarian cancer cell line; test: SRB analysis 3; conditions: 48 hours
How it was run: as §3

[17] = test system: A549 non-small cell lung cancer (NSCLC) cell line; test: SRB analysis 3; conditions: 48 hours
How it was run: as §3

[18] = test system: OVCAR-8 ovarian cancer cell line; test: SRB analysis 3; conditions: 48 hours
How it was run: as §3

[19] = test system: Huh-7 liver cancer cell line; test: SRB analysis 3; conditions: 48 hours
How it was run: as §3

[20] = test system: Caki-1 renal cancer cell line; test: SRB analysis 3; conditions: 48 hours
How it was run: as §3

[21] = test system: MCF7 breast cancer cell line; test: SRB analysis 3; conditions: 48 hours
How it was run: as §3

[22] = test system: UACC62 melanoma cell line; test: SRB analysis 3; conditions: 48 hours
How it was run: as §3

[23] = test system: PC-3 prostate cancer cell line; test: SRB analysis 3; conditions: 48 hours
How it was run: as §3

With `COc1ccc2[nH]c([S+]([O-])Cc3ncc(C)c(OC)c3C)nc2c1` (stereo not drawn) [KN510, omeprazole] the “degree of cell growth based on the control (100%)” value (from here on “degree … (100%)”) ([1]; KN510 100 μM) was 86.46%, the “degree … (100%)” value ([1]; KN510 200 μM) was 44.41% and the “degree … (100%)” value ([2]; KN510 100 μM) was 78.12%. The “degree … (100%)” value ([2]; KN510 200 μM) was 53.01%, the “degree … (100%)” value ([3]; KN510 100 μM) was 43.26% and the “degree … (100%)” value ([3]; KN510 200 μM) was 19.68%. For the same molecule, the “degree … (100%)” value ([4]; KN510 100 μM) was 40.19%, the “degree … (100%)” value ([4]; KN510 200 μM) was 17.37% and the “degree … (100%)” value ([5]; KN510 100 μM) was 97.11%. The “degree … (100%)” value ([5]; KN510 200 μM) was 54.29%, the “degree … (100%)” value ([6]; KN510 100 μM) was 77.31% and the “degree … (100%)” value ([6]; KN510 200 μM) was 28.00%. For the same molecule, the “cell growth (Control = 100)” value ([7]; KN510 100 μM) was 67.87, the “cell growth (Control = 100)” value ([8]; KN510 100 μM) was 84.15 and the “cell growth (Control = 100)” value ([9]; KN510 100 μM) was 62.39. For the same molecule, the “cell growth (Control = 100)” value ([10]; KN510 100 μM) was 84.1319, the “cell growth (Control = 100)” value (A375 melanoma cell line; KN510 100 μM) was 79.18 and the “cell growth (Control = 100)” value ([11]; KN510 100 μM) was 65.94. The “cell growth (Control = 100)” value ([12]; KN510 100 μM) was 86.99, the “cell growth (Control = 100)” value ([13]; KN510 100 μM) was 65.83 and the “cell growth (Control = 100)” value ([14]; KN510 100 μM) was 79.65. For the same molecule, the “cell growth (Control = 100)” value ([15]; KN510 100 μM) was 60.38, the “cell growth (Control = 100)” value ([16]; KN510 100 μM) was 85.06 and the “cell growth (Control = 100)” value ([17]; KN510 100 μM) was 55.4 and 30.1. For the same molecule, the “cell growth (Control = 100)” value ([18]; KN510 100 μM) was 68.75, the “cell growth (Control = 100)” value ([19]; KN510 100 μM) was 77.73 and the “cell growth (Control = 100)” value ([20]; KN510 100 μM) was 102.1283. For the same molecule, the “cell growth (Control = 100)” value ([21]; KN510 100 μM) was 70.3, the “cell growth (Control = 100)” value ([22]; KN510 100 μM) was 50.83 and the “cell growth (Control = 100)” value ([23]; KN510 100 μM) was 59.63.

For `COc1ccc(CN2CCNCC2)c(OC)c1OC` [KN713, trimetazidine], the “degree … (100%)” value ([1]; KN713 2.5 mM) was 78.16% and 58.31%, the “degree … (100%)” value ([2]; KN713 2.5 mM) was 88.97% and 65.95% and the “degree … (100%)” value ([3]; KN713 2.5 mM) was 53.40% and 61.55%. The “degree … (100%)” value ([4]; KN713 2.5 mM) was 36.83% and 32.97%, the “degree … (100%)” value ([5]; KN713 2.5 mM) was −0.24% and 1.98% and the “degree … (100%)” value ([6]; KN713 2.5 mM) was 61.66% and 62.56%. The “cell growth (Control = 100)” value ([7]; KN713 2.5 mM) was 59.89, the “cell growth (Control = 100)” value ([8]; KN713 2.5 mM) was 66.40 and the “cell growth (Control = 100)” value ([9]; KN713 2.5 mM) was 72.85. For the same molecule, the “cell growth (Control = 100)” value ([10]; KN713 2.5 mM) was 62.58, the “cell growth (Control = 100)” value (A375 melanoma cell line; KN713 2.5 mM) was 70.33 and the “cell growth (Control = 100)” value ([11]; KN713 2.5 mM) was 39.45. The “cell growth (Control = 100)” value ([12]; KN713 2.5 mM) was 74.5469, the “cell growth (Control = 100)” value ([13]; KN713 2.5 mM) was 58.71 and the “cell growth (Control = 100)” value ([14]; KN713 2.5 mM) was 36.64. The “cell growth (Control = 100)” value ([15]; KN713 2.5 mM) was 157.7818, the “cell growth (Control = 100)” value ([16]; KN713 2.5 mM) was 83.37 and the “cell growth (Control = 100)” value ([17]; KN713 2.5 mM) was 68.8 and 79.2. The “cell growth (Control = 100)” value ([18]; KN713 2.5 mM) was 72.86, the “cell growth (Control = 100)” value ([19]; KN713 2.5 mM) was 52.09 and the “cell growth (Control = 100)” value ([20]; KN713 2.5 mM) was 47.58. For the same molecule, the “cell growth (Control = 100)” value ([21]; KN713 2.5 mM) was 60.36, the “cell growth (Control = 100)” value ([22]; KN713 2.5 mM) was 54.65 and the “cell growth (Control = 100)” value ([23]; KN713 2.5 mM) was 45.06.
